Data on 52 compounds can be found in PubChem BioAssay AID1996.

The structures appear in SMILES notation. Values after ≈ are worked out from the molar mass of the structure shown. A value given as a limit tells only on which side of the number the result lay.

For this data set the following is noted: buffer; pH 7.4; 200.0 µM.
`COc1ccc(C(CCNCc2ccc(OC)c(OC)c2)c2ccc(F)cc2)cc1` (configuration not stated) yielded a solubility (kinetic) of more than 61.4 µg/mL.

For the compound `COc1cccc2cc(C(=O)N3CCCCCCC3)c(=O)oc12`, the kinetic solubility is more than 47.3 µg/mL.

Consider `Cc1ccc(CNC2CCCCC2)s1.Cl`, for which the kinetic solubility is more than 36.9 µg/mL.

As for `C=CCn1c(SCC(=O)NC2(C)CCS(=O)(=O)C2)nc2ccccc21` (configuration not stated), the kinetic solubility is more than 56.9 µg/mL.

Compound `Cl.NOCC(=O)O` yielded a solubility (kinetic) of more than 16.4 µg/mL.

`CCc1ccccc1N1C(=O)CC(Sc2nccc(C)n2)C1=O` (configuration not stated): the solubility (kinetic) came out at 47.3 µg/mL (≈ 144 µM).

In turn, `CN(C)CCCN1c2ccccc2Sc2ccccc21.Cl` showed a solubility (kinetic) of more than 48.1 µg/mL.

`CSc1ccccc1NC(=O)CN1c2ccccc2CC1C` (configuration not stated) returned a kinetic solubility of 11.9 µg/mL (≈ 38.1 µM).

In turn, `O=C1C(Cl)=C(N2CCCC2)C(=O)N1c1ccc(F)cc1` showed a kinetic solubility of 7.4 µg/mL (≈ 25.1 µM).

In turn, `NS(=O)(=O)c1ccc(CNC(=O)c2cc(=O)c3ccccc3o2)cc1` came in with a kinetic solubility of 1.7 µg/mL (≈ 4.74 µM).

As for `CC(C)(CN1CCc2ccccc2C1)NS(=O)(=O)c1ccccc1`, the kinetic solubility worked out at 34.8 µg/mL (≈ 101 µM).

Take `Cc1ccccc1C(=O)NC1CCN(CC(=O)NC2CCCCC2)CC1`: the kinetic solubility is more than 53.6 µg/mL.

With `CC1Cc2ccccc2N1C1=CC(=O)CCC1` (configuration not stated), the kinetic solubility was more than 34.1 µg/mL.

On to `CCC(Oc1ccccc1OC)C(=O)Nc1ccc2c(c1)n(C)c(=O)n2C` (configuration not stated), for which the kinetic solubility is more than 55.4 µg/mL.

`Cc1ccc(/C=C/C(=O)Nc2ccc(S(N)(=O)=O)cc2)o1` gave a kinetic solubility of more than 46 µg/mL.

With `COc1ccc(NC(=O)N2C[C@@H]3C[C@@H](C2)c2cccc(=O)n2C3)cc1`, the solubility (kinetic) was more than 50.9 µg/mL.

As for `Cn1nccc1C(=O)N1CCN(c2ccccc2F)CC1`, the solubility (kinetic) was more than 43.2 µg/mL.

Consider `N=c1c2c(ncn1CCCO)Oc1cc(O)ccc1C2c1ccccc1` (configuration not stated), for which the kinetic solubility is 35.3 µg/mL (≈ 101 µM).

Turning to `CC(C)n1c(NCc2ccccc2O)nc2ccccc21`, the solubility (kinetic) worked out at 15.8 µg/mL (≈ 56.2 µM).

The compound `CCCCCCNC1=NCCS1` came in with a solubility (kinetic) of 22.9 µg/mL (≈ 123 µM).

In the case of `COc1ccc2[nH]cc(CCNC(=O)Cc3c(F)cccc3Cl)c2c1`, the kinetic solubility was 3.9 µg/mL (≈ 10.8 µM). This solubility kinetic is about 5.9-fold lower than that of the compound before.

The compound `COc1ccccc1CNS(=O)(=O)c1cccs1` yielded a kinetic solubility of more than 42.5 µg/mL.

Take `Cc1occc1C(=O)NCc1nc(-c2ccccc2)no1`: the solubility (kinetic) is more than 42.5 µg/mL.

In turn, `Nc1nnc(CC(=O)Nc2ccccc2)s1` returned a kinetic solubility of more than 35.1 µg/mL.

`O=C(Cc1ccc2ccccc2c1)Nc1ccccc1Br`: the kinetic solubility was less than 0.7 µg/mL.

Turning to `CCOc1ccc(NC(=O)Nc2ccc3c(c2)nc(C)n3C)cc1`, the kinetic solubility is 2.5 µg/mL (≈ 7.71 µM).

In turn, `COCCNC(=O)CSc1ccccc1C(=O)O` registered a solubility (kinetic) of more than 40.4 µg/mL.

`CC1(c2ccc(OCC(N)=O)cc2)NC(=O)NC1=O` (configuration not stated) had a solubility (kinetic) of 35.7 µg/mL (≈ 136 µM).

In turn, `C=CCNC(=O)/C(C#N)=C/c1ccc2c(c1)OCCO2` registered a solubility (kinetic) of 7 µg/mL (≈ 25.9 µM).

In turn, `COc1ccnc2c1c(=O)n(Cc1cccc(Cl)c1)c(=O)n2C` had a kinetic solubility of 9.8 µg/mL (≈ 29.5 µM).

In the case of `CC1CCCC(C)N1C(=O)COC(=O)CN1C(=O)c2ccccc2C1=O` (configuration not stated), the solubility (kinetic) was more than 53.8 µg/mL.

The compound `Cc1oc(/N=C/c2cccc([N+](=O)[O-])c2)c(C#N)c1C` returned a kinetic solubility of 7.2 µg/mL (≈ 26.7 µM).

`O=C(NCCCn1ccnc1)c1cc(-c2cccc(O)c2)on1`: the kinetic solubility came to 39.6 µg/mL (≈ 127 µM).

For `Cc1cc(C)c(S(=O)(=O)c2cccc(C)c2C)c(=O)[nH]1`, the solubility (kinetic) is more than 43.7 µg/mL.

In turn, `CCn1cnnc1SCC(=O)Nc1ccccc1C(=O)NC1CC1` had a kinetic solubility of more than 51.8 µg/mL.

With `Cc1ccc(C(=O)Nc2ccc(Nc3ccccc3)cc2)cc1Br`, the solubility (kinetic) was less than 0.4 µg/mL.

With `CCOC(=O)N1CCN(C(=O)C(C)NC(=O)c2ccco2)CC1` (configuration not stated), the kinetic solubility came out at 44.3 µg/mL (≈ 137 µM).

Consider `O=C(NC1CC(=O)N(c2ccccc2)C1)C1CC1` (configuration not stated), for which the kinetic solubility is more than 36.6 µg/mL.

On to `Nc1ccc(C(=O)OCc2nc3ccccc3s2)cc1`, for which the solubility (kinetic) turned out to be 27 µg/mL (≈ 95 µM).

In turn, `COc1ccc(C(CNC(=O)c2cc(C)on2)N(C)C)cc1` (configuration not stated) showed a kinetic solubility of 45.3 µg/mL (≈ 149 µM). Compared with the last compound, the solubility kinetic is about 1.7-fold higher.

On to `CC(C(=O)Nc1ccc(C#N)cc1)N(C)CC(=O)Nc1cccc(F)c1` (configuration not stated), for which the solubility (kinetic) amounted to 5.9 µg/mL (≈ 16.6 µM). Compared with the last compound, the solubility kinetic is about 7.7-fold lower.

The compound `NCCCS(=O)(=O)O` registered a solubility (kinetic) of less than 0.3 µg/mL.

Consider `COc1cc(C)cc(CN2CC=C(c3ccccc3)CC2)c1O`, for which the kinetic solubility was found to be 12.8 µg/mL (≈ 41.4 µM).

In turn, `COCC(C)n1c(C)cc(C(=O)COC(=O)c2nn(C)c(=O)c3ccccc23)c1C` (configuration not stated) returned a solubility (kinetic) of more than 61.7 µg/mL.

`O=C(O)c1ccc(NC(=O)C(c2ccccc2)c2ccccc2)cc1` gave a solubility (kinetic) of more than 49.7 µg/mL.

As to `S=C(NCCN1CCOCC1)NC1CCCCC1`, the kinetic solubility turned out to be 38.5 µg/mL (≈ 142 µM).

In turn, `c1ccc(Oc2nc(-c3cccnc3)nc3ccccc23)cc1` displayed a solubility (kinetic) of 0.7 µg/mL (≈ 2.34 µM).

On to `Cl.OC(COCCC12CC3CC(CC(C3)C1)C2)CN1CCCC1` (configuration not stated), for which the solubility (kinetic) was 42.3 µg/mL.

In the case of `Cc1ccc(S(=O)(=O)N2CCCCCC2)cc1C(=O)NCc1ccccn1`, the kinetic solubility is 55.7 µg/mL (≈ 144 µM). This solubility kinetic and that of the compound before are within 1.5-fold of each other.

`Cc1cc(C(=O)OCC(=O)NC2CC2)ccc1[N+](=O)[O-]` yielded a kinetic solubility of 15.5 µg/mL (≈ 55.7 µM).

`CCOc1cccc(N2C(=O)/C(=C/c3ccco3)C(=O)NC2=S)c1`: the kinetic solubility is 12.3 µg/mL (≈ 35.9 µM). The solubility kinetic values of the last two compounds are within 1.5-fold of each other.

`NC(=O)c1cn(C2CCCCC2)c2ccccc2c1=O` gave a kinetic solubility of more than 40.5 µg/mL.

The term solubility (kinetic) denotes solubility judged after dilution from a stock solution rather than from solid.
